Experiment: Stability of amino-functionalized denatonium derivatives (LC/MS measurements)
Type: physicochemical
Description: The decomposition of the substance is illustrated as follows: […]

stability: not stable
SMILES: CC[N+](CC)(CC(=O)Nc1c(C)cccc1C)Cc1ccc(N)cc1 [derivative (1)]

— patent US11891352B2, “Aminomethyl-functionalized denatonium derivatives, their preparation and use” (Julius-Maximilians-Universitaet Wuerzburg, priority 2018, dated 2024)
